Assay results taken from patent US20260083865A1, “PROSTATE SPECIFIC MEMBRANE ANTIGEN (PSMA) LIGANDS AND USE THEREOF” (priority 2022, published 2026).
Read-outs that look alike come from different tables or passages of the source. Numbered stars: 1 amine (or outer) side, 2 acyl side, 3 side chain; on linkers, the order of the positions; unused ones are H or OH. Bridge positions count the residues as written; N and C are the ends. Square brackets hold non-standard residues; d marks the D form. Peptide text beside a SMILES is read from it. * marks the point of attachment. Acetyl(1-DOTA-4-piperidyl) = O=C(O)CN1CCN(CC(=O)O)CCN(CC(=O)N2CCC(CC(=O)*)CC2)CCN(CC(=O)O)CC1; DOTA = O=C(O)CN1CCN(CC(=O)O)CCN(CC(=O)*)CCN(CC(=O)O)CC1; X10 = NC(=O)CN1CCN(CC(=O)O)CCN(CC(=O)*)CCN(CC(=O)O)CC1; Lys(Me3) = C[N+](C)(C)CCCC[C@H](N)C(=O)O; Phe(4-Cl) = N[C@@H](Cc1ccc(Cl)cc1)C(=O)O; Arg(Me) = CNC(=N)NCCC[C@H](N)C(=O)O; X1 = O=C(CC1CCN([*:1])CC1)[*:2]; Cit = NC(=O)NCCC[C@H](N)C(=O)O; Lys(Me) = CNCCCC[C@H](N)C(=O)O; Tle = CC(C)(C)[C@H](N)C(=O)O; Aib = CC(C)(N)C(=O)O

Experiments:
[1] = target: T1, PSMA-expressing C4-2 cells (Homo sapiens, UniProt Q04609); assay: FACS binding assay (competition with 50 nM PSM-0183); settings: read-out: pIC50 [C4-2] CAT (converted)
T1 construct: PSMA-expressing C4-2 cells (ATCC, Cat. No. CRL-3314) were cultured in RPMI-1640; host or cells: C4-2 cells
T1 sequence (Q04609 whole entry): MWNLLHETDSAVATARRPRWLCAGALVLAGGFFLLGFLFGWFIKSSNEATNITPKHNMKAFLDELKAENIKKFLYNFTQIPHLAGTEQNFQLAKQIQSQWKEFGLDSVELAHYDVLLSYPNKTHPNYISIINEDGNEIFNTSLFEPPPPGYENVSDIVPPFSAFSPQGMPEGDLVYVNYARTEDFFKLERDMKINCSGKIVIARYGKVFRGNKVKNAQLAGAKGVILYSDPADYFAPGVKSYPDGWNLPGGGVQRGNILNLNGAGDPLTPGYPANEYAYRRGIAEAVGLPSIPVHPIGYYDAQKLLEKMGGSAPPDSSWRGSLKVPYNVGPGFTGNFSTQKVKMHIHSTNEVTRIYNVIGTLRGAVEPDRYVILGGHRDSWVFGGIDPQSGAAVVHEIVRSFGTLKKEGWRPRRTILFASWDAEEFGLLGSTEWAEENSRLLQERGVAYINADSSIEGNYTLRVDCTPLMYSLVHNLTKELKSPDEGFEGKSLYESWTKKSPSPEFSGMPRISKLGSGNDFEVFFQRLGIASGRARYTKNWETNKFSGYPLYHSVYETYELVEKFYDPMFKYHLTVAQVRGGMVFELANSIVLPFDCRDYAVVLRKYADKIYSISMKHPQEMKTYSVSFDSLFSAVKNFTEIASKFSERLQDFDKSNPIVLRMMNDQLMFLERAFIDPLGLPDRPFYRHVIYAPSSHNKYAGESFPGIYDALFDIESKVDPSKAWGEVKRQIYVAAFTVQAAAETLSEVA
How it was run: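 Competition format: fluorescent tracer PSM-0183 (50 nM) displaced from PSMA on C4-2 cells by a test compound titration over 1 h at 4 °C. Bound tracer was quantified as flow-cytometric AF488 median fluorescence after washing. Four-parameter logistic fits of MFI data gave IC50 and pIC50.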

[2] = target: T2, Fc-fusion protein of human PSMA (hPSMA-Fc) (Homo sapiens, UniProt Q04609); assay: Surface plasmon resonance assay (Biacore T200, single cycle kinetic); format: binding; settings: read-out: pKD CAT (converted)
T2 construct: purchased Acro Biosystems PSA-H5264
T2 sequence (Q04609 44-750 limits assumed): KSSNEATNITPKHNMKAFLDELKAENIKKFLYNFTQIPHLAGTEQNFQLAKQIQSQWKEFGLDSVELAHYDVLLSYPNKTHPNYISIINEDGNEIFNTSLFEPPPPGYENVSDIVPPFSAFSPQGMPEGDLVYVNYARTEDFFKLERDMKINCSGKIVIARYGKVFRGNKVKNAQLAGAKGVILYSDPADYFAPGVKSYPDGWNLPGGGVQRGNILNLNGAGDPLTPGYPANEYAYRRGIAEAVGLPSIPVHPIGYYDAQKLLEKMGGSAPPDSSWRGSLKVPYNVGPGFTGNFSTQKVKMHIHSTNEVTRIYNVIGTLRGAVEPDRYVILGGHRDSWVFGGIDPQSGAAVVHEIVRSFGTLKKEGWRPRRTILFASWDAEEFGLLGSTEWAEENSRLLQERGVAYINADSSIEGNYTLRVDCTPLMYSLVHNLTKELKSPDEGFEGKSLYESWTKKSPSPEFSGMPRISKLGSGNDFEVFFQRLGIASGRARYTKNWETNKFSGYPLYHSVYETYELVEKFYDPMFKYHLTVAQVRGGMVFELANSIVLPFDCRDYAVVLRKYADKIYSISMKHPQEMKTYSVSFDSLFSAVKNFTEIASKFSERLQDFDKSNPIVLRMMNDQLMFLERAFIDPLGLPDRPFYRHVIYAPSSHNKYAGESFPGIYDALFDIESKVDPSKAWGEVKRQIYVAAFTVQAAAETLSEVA
How it was run: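 KD, expressed as pKD, came from 1:1 Langmuir fits of reference- and buffer-blank-subtracted SPR data. The runs were single-cycle kinetics at 25° C in HBST/0.1% DMSO over human PSMA-Fc, captured to ~1000 RU on a peptide-coated CM5 surface and regenerated with 10 mM glycine pH 1.5.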

[3] = pIC50 category of FACS binding, C4-2 cells
[4] = pKD category for PSMA SPR activity assay, hPSMA-Fc, 25° C.
[5] = FACS binding, C4-2 cells, category
[6] = FACS binding, C4-2 cells, competition with 50 nM PSM-0183, category
[7] = SPR, hPSMA-Fc, single cycle kinetic, 25° C., category

CNC(=N)NCCC[C@@H]1NC(=O)[C@H](CCCC[N+](C)(C)C)NC(=O)[C@@H](NC(=O)[C@H](Cc2ccc(Cl)cc2)NC(=O)C(C)(C)NC(=O)[C@@H](NC(=O)CC2CCN(C(=O)CN3CCN(CC(=O)O)CCN(CC(=O)O)CCN(CC(=O)O)CC3)CC2)[C@@H](C)O)CSSC[C@@H](C(=O)N[C@H](C(=O)N[C@H](C(N)=O)[C@@H](C)O)C(C)(C)C)NC(=O)[C@H](CC(N)=O)NC(=O)C(C)(C)NC1=O [PSM-0483, DOTA-Cmp-Thr-Aib-Pcf-[Cys-KMe3-Arg(Me)-Aib-Asn-Cys]-Tle-Thr-NH2] ({DOTA}-[X1]T[Aib][Phe(4-Cl)]C[Lys(Me3)][Arg(Me)][Aib]NC[Tle]T-NH2; disulfide 5-10)
IC50 [1, 3]: < 200 nM
Kd [2, 4]: 12.6 to 126 nM

CNCCCC[C@@H]1NC(=O)[C@@H](NC(=O)[C@H](Cc2ccc(Cl)cc2)NC(=O)C(C)(C)NC(=O)[C@@H](NC(=O)CC2CCN(C(=O)CN3CCN(CC(=O)O)CCN(CC(N)=O)CCN(CC(=O)O)CC3)CC2)[C@@H](C)O)CSSC[C@@H](C(=O)N[C@H](C(=O)N[C@H](C(N)=O)[C@@H](C)O)C(C)(C)C)NC(=O)[C@H](CC(N)=O)NC(=O)C(C)(C)NC(=O)[C@H](CCCNC(=N)NC)NC1=O [PSM-0601, LSC-Cmp-Thr-Aib-Pcf-[Cys-Lys(Me)-Arg(Me)-Aib-Aan-Cys]-Tle-Thr-NH] (X10-[X1]T[Aib][Phe(4-Cl)]C[Lys(Me)][Arg(Me)][Aib]NC[Tle]T-NH2; disulfide 5-10)
IC50 [1, 5]: < 200 nM
Kd ([2]; PSMA SPR assay, category): < 12.6 nM

CC(=O)N[C@H](C(=O)NC(C)(C)C(=O)N[C@@H](Cc1ccc(Cl)cc1)C(=O)N[C@H]1CSSC[C@@H](C(=O)N[C@H](C(=O)N[C@H](C(=O)N[C@H](CCCCNC(=O)CC2CCN(C(=O)CN3CCN(CC(=O)O)CCN(CC(=O)O)CCN(CC(=O)O)CC3)CC2)C(N)=O)[C@@H](C)O)C(C)(C)C)NC(=O)[C@H](CC(N)=O)NC(=O)C(C)(C)NC(=O)[C@H](CCCNC(N)=O)NC(=O)[C@H](CCCCN)NC1=O)[C@@H](C)O [PSM-0322, Ac-Thr-Aib-Pcf-[Cys-Lys-Cit-Aib-Asn-Cys]-Tle-Thr-lys (DOTA-Cmp)-NH2] (Ac-T[Aib][Phe(4-Cl)]CK[Cit][Aib]NC[Tle]T[dK](Acetyl(1-DOTA-4-piperidyl))-NH2; disulfide 4-9)
IC50 ([1]; FACS binding, PSMA-expressing C4-2 cells, pIC50 category): < 200 nM
Kd ([2]; PSMA SPR assay, hPSMA-Fc, 25° C., pKD category): 12.6 to 126 nM

CC(=O)N[C@H](C(=O)NC(C)(C)C(=O)N[C@@H](Cc1ccc(Cl)cc1)C(=O)N[C@H]1CSSC[C@@H](C(=O)N[C@H](C(=O)N[C@H](C(N)=O)[C@@H](C)O)C(C)(C)C)NC(=O)[C@H](CC(C)C)NC(=O)C(C)(C)NC(=O)[C@H](CCCNC(=N)N)NC(=O)[C@H](CCCCN)NC1=O)[C@@H](C)O [PSM-0584, Ac-Thr-Aib-Pcf-[Cys-Lys-Cit-Aib-Leu-Cys]-Tle-Thr-NH2] (Ac-T[Aib][Phe(4-Cl)]CKR[Aib]LC[Tle]T-NH2; disulfide 4-9)
IC50 [1, 5]: < 200 nM
Kd ([2]; PSMA SPR assay, category): < 12.6 nM

CC(=O)N[C@H](C(=O)NC(C)(C)C(=O)N[C@@H](Cc1ccccc1)C(=O)N[C@H]1CSSC[C@@H](C(=O)NC(C)(C)C(=O)N[C@H](C(N)=O)[C@@H](C)O)NC(=O)[C@H](CC(N)=O)NC(=O)C(C)(C)NC(=O)[C@H](CCCNC(=N)N)NC(=O)[C@H](CCCCN)NC1=O)[C@@H](C)O [PSM-0394, Ac-Thr-Aib-Phe-[Cys-Lys-Arg-Aib-Asn-Cys]-Aib-Thr-NH2] (Ac-T[Aib]FCKR[Aib]NC[Aib]T-NH2; disulfide 4-9)
IC50 [1, 3]: 200 to 1260 nM
Kd [2, 4]: 12.6 to 126 nM

C[C@@H](O)[C@H](NC(=O)CN1CCN(CC(=O)O)CCN(CC(=O)O)CCN(CC(=O)O)CC1)C(=O)NC(C)(C)C(=O)N[C@@H](Cc1ccccc1)C(=O)N[C@H]1CSSC[C@@H](C(=O)N[C@H](C(N)=O)C(C)(C)C)NC(=O)[C@H](CC(N)=O)NC(=O)C(C)(C)NC(=O)[C@H](CCCNC(=N)N)NC(=O)[C@H](CCCCN)NC1=O [PSM-0184, DOTA-Thr-Aib-Phe-[Cys-Lys-Arg-Aib-Asn-Cys]-Tle-NH2] ({DOTA}-T[Aib]FCKR[Aib]NC[Tle]-NH2; disulfide 4-9)
IC50 [1, 6]: < 200 nM
Kd [2, 7]: 12.6 to 126 nM

CNCCCC[C@@H]1NC(=O)[C@@H](NC(=O)[C@H](Cc2ccc(Cl)cc2)NC(=O)C(C)(C)NC(=O)[C@@H](NC(=O)CC2CCN(C(=O)CN3CCN(CC(=O)O)CCN(CC(=O)O)CCN(CC(=O)O)CC3)CC2)[C@@H](C)O)CSSC[C@@H](C(=O)N[C@H](C(=O)N[C@H](C(N)=O)[C@@H](C)O)C(C)(C)C)NC(=O)[C@H](CC(N)=O)NC(=O)[C@@H](C)NC(=O)[C@H](CCCNC(=N)NC)NC1=O [PSM-0246, DOTA-Cmp-Thr-Aib-Pcf-[Cys-Lys(Me)-Arg(Me)-ala-Asn-Cys]-Tle-Thr-NH2] ({DOTA}-[X1]T[Aib][Phe(4-Cl)]C[Lys(Me)][Arg(Me)][dA]NC[Tle]T-NH2; disulfide 5-10)
IC50 [1, 6]: < 200 nM
Kd [2, 7]: < 12.6 nM
